This is an account of results in publication PMC9146377, “Design and Synthesis of Novel Bis-Imidazolyl Phenyl Butadiyne Derivatives as HCV NS5A Inhibitors” (Pharmaceuticals, 2022).

Data set [1] is described as follows: Phase I and phase II metabolic stability in human liver S9 fractions. The following applies: LC-MS/MS, read-out: half-life time (t½). The class given is in vitro ADME. Here is the method:
This was done using human liver S9 fractions, following the previously reported protocol. A number of samples were taken at defined time points, and using LC-MS/MS, the remaining percentage of the parent compound was determined.

Data set [2] relates to HCV genotype 1b Con-1 subgenomic replicon. In words: Anti-HCV luciferase assay, genotype 1b (Con1) subgenomic replicon in Huh5-2 cells. The following applies: mean of three experiments. The data set is classed as cell-based, Hepatitis C virus. As to the method:
(§1) All synthesized compounds were tested against HCV genotype 1b Con-1 subgenomic replicon in the Huh-5-2 stable cell line. Specifically, their activity against viral replication was estimated by measuring firefly luciferase, which is co-expressed by the bicistronic replicon, and their half-maximal effective concentrations (EC50) were determined. In parallel, the half-maximal cytotoxic concentrations (CC50) of the compounds were estimated, and their selective indexes (SI50: CC50/ EC50) were calculated. All novel synthesized compounds were active against HCV 1b with EC50 < 1 µM except for compound 4b (Table 3).
(§2) Huh5-2 [65] and Huh7-JFH1 [66] stable cell lines harbor the subgenomic HCV reporter replicon I389luc-ubi-neo/NS3-3′/Con1/5.1 (genotype 1b; strain Con1) and I389luc-ubi-neo/NS3-3′_dg_JFH1 (genotype 2a, JFH1 strain), respectively (kindly provided by R. Bartenschlager, Heidelberg University, Heidelberg, Germany). Huh7.5-3a and Huh7.5-4a stable cell lines harbor the subgenomic HCV reporter replicon S52-SG (Feo) (AII) (genotype 3a; S52 strain) and ED43-SG (Feo) (VYG) (genotype 4a; ED43 strain), respectively (viral constructs kindly provided by C.M. Rice, Rockefeller University, New York, NY, USA). These replicons carry as a first cistron firefly luciferase (F-Luc) and neomycin phosphotransferase genes under the translational control of the HCV internal ribosome entry site (IRES), followed by HCV NS3 to NS5B proteins under the control of the EMCV IRES.
The anti-HCV assay in replicon cells was performed by seeding 1 × 10^4 cells per well in a 96-well plate. After 24 h of incubation at 37 °C (5% CO2) and medium removal, serial dilutions of the test compounds in complete DMEM were added. Cells were lysed after 72 h, and F-Luc activity was measured. The anti-HCV assay for the full-length viral construct H77S.3/GLuc2A was performed after electroporation of Huh7-Lunet cells with viral RNA. Cells were seeded in 96-well plates, the medium was removed 24 h after electroporation, and serial dilutions of the compounds in complete DMEM were added. At 72 h post-treatment, cell supernatants were collected, and G-Luc activity was measured. In addition, the cells were lysed for total protein quantification.
Relative luminescence units (RLU) were expressed as a percentage of the respective units derived from DMSO-treated cells (control). The half-maximal effective concentration (EC50), defined as the concentration of compound that reduces luciferase signal by 50%, was calculated by dose-response curve analysis using Prism 5.0 software (GraphPad Software Inc., San Diego, CA, USA).
The F-Luc activity was measured using the Luciferase Assay System (Promega, Madison, WI, USA), as recommended by the manufacturer. The G-Luc activity was measured using 12 μM coelenterazine (Promega) in assay buffer (50 mM potassium phosphate, pH 7.4, 500 mM NaCl, 1 mM EDTA). Measurements were carried out using a GloMax 20/20 single tube luminometer (Promega) for 10 s. The F-Luc activity was normalized to the total protein amount determined using the Bradford assay reagent (Pierce, Waltham, MA, USA).
(In general: In antiviral work, replicon cells carry a viral genome segment that copies itself.)

Data set [3] can be described thus: Cytotoxicity assay (intracellular ATP levels) in Huh5-2 replicon cells. The data set is classed as cell-based. The following applies: human, Huh5-2 cells, read-out: HCV Replicon 1b CC50. Here is the method: as §1
Intracellular ATP levels were measured to determine the cytotoxicity of the compounds in the treated cells. In 96-well plates, 10^4 cells per well were seeded, incubated with serial dilutions of the compounds or DMSO as a control for 72 h at 37 °C (5% CO2) and lysed for ATP measurement. ATP levels were measured using the ViaLight HS BioAssay kit (Lonza, Basel, Switzerland) in a GloMax 20/20 single-tube luminometer (Promega) for 1 s, according to the manufacturer’s protocol. Values were normalized to total protein amounts and used to determine the compound concentration causing 50% cell death (CC50). Nonlinear regression analysis was performed using Prism 5.0 software (GraphPad Software Inc., San Diego, CA, USA).

The subject of data set [4] is subgenomic replicon of HCV GT 4a (strain ED43). The experiment in a line: Anti-HCV luciferase assay, genotype 4a replicon in Huh7.5-4a cells. The class given is cell-based, Hepatitis C virus. Here is the method:
Specifically, we determined the activity of 10a against viral replication by measuring luciferase activity in Huh7-JFH1, Huh7.5-3a, and Huh7.5-4a stable cell lines containing subgenomic replicons of HCV GT 2a (strain JFH1), GT 3a (strain S52) and GT 4a (strain ED43), respectively. In addition, the activity of 10a was determined in Huh7-Lunet cells electroporated with the in vitro transcribed full-length reporter viral RNA of HCV genotype 1a (strain H77S.3). […]
(§3) The anti-HCV assay in replicon cells was performed by seeding 1 × 10^4 cells per well in a 96-well plate. […] Cells were lysed after 72 h, and F-Luc activity was measured. […] At 72 h post-treatment, cell supernatants were collected, and G-Luc activity was measured. In addition, the cells were lysed for total protein quantification.
(§4) Relative luminescence units (RLU) were expressed as a percentage of the respective units derived from DMSO-treated cells (control). […]
(§5) The F-Luc activity was measured using the Luciferase Assay System (Promega, Madison, WI, USA), as recommended by the manufacturer. The G-Luc activity was measured using 12 μM coelenterazine (Promega) in assay buffer (50 mM potassium phosphate, pH 7.4, 500 mM NaCl, 1 mM EDTA). […] The F-Luc activity was normalized to the total protein amount determined using the Bradford assay reagent (Pierce, Waltham, MA, USA).

Data set [5] relates to subgenomic replicon of HCV GT 2a (strain JFH1). The experiment in a line: Anti-HCV luciferase assay, genotype 2a replicon in Huh7-JFH1 cells. The class given is cell-based, Hepatitis C virus. The following applies: for pEC50: Huh7-JFH1 cells. Here is the method: Specifically, we determined the activity of 10a against viral replication by measuring luciferase activity in Huh7-JFH1, Huh7.5-3a, and Huh7.5-4a stable cell lines containing subgenomic replicons of HCV GT 2a (strain JFH1), GT 3a (strain S52) and GT 4a (strain ED43), respectively. In addition, the activity of 10a was determined in Huh7-Lunet cells electroporated with the in vitro transcribed full-length reporter viral RNA of HCV genotype 1a (strain H77S.3).
as §2, with “These replicons carry as a first cistron firefly luciferase (F-Luc) and neomycin phosphotransferase genes under the translational control of the HCV internal ribosome entry site (IRES), followed by HCV NS3 to NS5B proteins under the control of the EMCV IRES.” left out
as §3, §4, §5

pEC50: −log10 of the molar value. Where two headings read alike, the source gives them in different places.

As a reminder, the half-life is how long it takes for the measured level to halve. A word on the pEC50: it is the EC50 on a negative log10 scale, so that one unit is a factor of ten. By CC50 is commonly meant the concentration giving 50% cytotoxicity. Consider `COC(=O)N[C@@H](C(=O)N1CCC[C@H]1c1ncc(-c2cccc(C#CC#Cc3cccc(-c4cnc([C@@H]5CCCN5C(=O)[C@H](NC(=O)OC)c5ccccc5)[nH]4)c3)c2)[nH]1)c1ccccc1` [Compound 10a, Dimethyl ((1R,1′R)-((2S,2′S)-((buta-1,3-diyne-1,4-diylbis(3,1-phenylene))bis(1H-imidazole-5,2-diyl))bis(pyrrolidine-2,1-diyl))bis(2-oxo-1-phenylethane-2,1-diyl))dicarbamate], for which, in data set [1], the half-life is > 2 h. For the same compound, the negative logarithm of the EC50 (pEC50) in data set [2] (Hepatitis C virus, Huh-5-2, 72 h, read-out: HCV Replicon 1b EC50, Huh5-2 cells, Con1 strain, F-Luc, 72 h) is 10.00; in data set [2] (Huh5-2 cells, Con1 strain, F-Luc, 72 h, read-out: HCV Replicon 1b EC50), 10.00; in data set [4] (Hepatitis C virus, GT4A, read-out: Gt4a EC50) it was 7.19; in data set [5] (Hepatitis C virus, GT2A) it was 7.55; in data set [5] (listed as Comp. 10a, read-out: Gt2a EC50), 7.55. Besides, the cytotoxic concentration (CC50) at 72 h in data set [3] was > 100000 nM. In addition, the “Gt4a SI” value in data set [4] (ED43 replicon) is >1537.52. Moreover, the “Gt2a SI” value in data set [5] is >3567.61.
